Data set [1] can be described thus: Aqueous solubility by UV spectroscopy. The format is physicochemical. The following applies: phosphate buffer solution, buffer solution pH 7.4, 37 °C. As to the method:
The solubility assay was carried out by correlating the concentration with the absorbance obtained by ultraviolet. First, a stock solution of the compound was prepared by dissolving 1 mg in 20 mL of methanol, and then the wavelength of greatest absorption of each compound was obtained by scanning between wavelengths from 200 nm to 500 nm. From the stock solution, six dilutions were prepared (dilution factor: 2.5), and the absorbance reading was performed in quartz cuvettes (10 mm optical path) in the UV-VIS spectrophotometer (Femto 800XI) at the previously determined wavelength. With the values obtained, a calibration curve with linear regression was made, in which the linearity of the analytical method is observed, with values of correlation coefficient (p > 0.95).
The compound was dissolved in a phosphate buffer solution (pH 7.4), prepared according to the Brazilian Pharmacopoeia (Vol.1) to obtain a supersaturated solution. The supersaturated aqueous solution was kept under stirring for 4 hours at 37°C and then the sample was filtered on a 0.45 μm filter to carry out the reading at the corresponding wavelength of the compound. The solubility was then determined through the equation of the straight line obtained by the linear regression of the calibration curve of each compound [19].

A further data set can be described thus: PAMPA-BBB permeability. An excerpt: (§1) The parallel artificial membrane permeability assay uses 96-well plate in a “sandwich” type system, where one plate overlaps the other (PAMPA). […] The lipid mixture that impregnates the PVDF filter has a different constitution for the permeability tests for the blood-brain barrier (Brain lipid from pig extract in dodecane) and gastro-intestinal tract (L-α soy phosphatidylcholine in dodecane). In the PAMPA BBB and TGI assays, the optical density values obtained in the reading at each selected wavelength, for each of the compounds were analyzed in comparison with the values of several controls. In the case of the BBB, these values were used to elaborate an equation and determine the permeability coefficient (Pe), using a previously elaborated spreadsheet, and, for the TGI, these values were used to determine the absorbed fraction (Fa%), both using the Excel® program.
A general note: In PAMPA a lipid-coated filter parts donor from acceptor wells.

A short description of another data set: PAMPA-GIT permeability. As to conditions: PAMPA-GIT conditions.
From the text: as §1

A further data set in a line: Plasma stability. Type of data set: in vitro ADME, rat. As for the experimental part:
For analysis of plasma stability, the LASSBio-1491 in a final concentration of 5 μM from stock solution of 1 mM, was added in 50 μL of rat plasma solution diluted in 250 μL with PBS (pH 7.4) and was placed in a shaker at 37 °C under vigorous stirring for 0, 30, 60, 120 and 240 minutes. After each reaction time, 500 μL of cold methanol and 500 μL of cold acetonitrile containing 5 uM of methyl 1,1’biphenyl-4-carboxylate 5 μM (internal standard) were added to the wells to stop the reaction. The solution was mixed and centrifuged at 24500 x g for 15 min (Universal centrifuge 320R Hettich®). The supernatant (1 mL) was filtrated and placed in vials to be analyzed by HPLC-PDA, Shimadzu—LC20AD, Kromasil C-18 column (4.6 mm x 250 mm, 5 μm), SPD M20A diode array detector, flow 1 mL/min, mobile phase acetonitrile: water 1:1 (v/v) for LASSBio-1491 and acetonitrile: water 60:40 (v/v) for LASSBio-1736, for 20 minutes at 254 nm wavelength.

A short description of data set [2]: Microsomal metabolism. As to conditions: rat liver microsomes. Type of data set: in vitro ADME. As to the method:
The study of the microsomal metabolism of the compounds was evaluated by placing 1 mg/ml rat liver microsome in a microcentrifuge tube, in the presence of a NADPH generator system (1 mM NADP^+, 1.5 mM MgCl2, 3.5 mM glucose-6-phosphate and 0.5 U/mL glucose-6-phosphate dehydrogenase) and phosphate buffer pH 7.4 in sufficient quantity for 250 μL. After 15 minutes of pre-incubation at 37°C in a water bath, the enzymatic reactions were started by adding 2 μL of a stock solution 1 mM from one of the prototypes (500 μL 20% DMSO 80% CH3CN), so that a final concentration of 5 μM was reached (0.2% DMSO, 0.8% acetonitrile).
Then, the samples were again incubated at 37°C under agitation for predetermined and fixed periods (0, 15, 30, 45 and 60 minutes). At the end of the incubation period 500 μL of cold methanol and 500 μL of cold acetonitrile containing 5 μM of methyl 1,1’biphenyl-4-carboxylate 5 μM (internal standard) were added to the wells to stop the reaction and the samples were homogenized and kept in an ice bath to accelerate protein precipitation. The mixture was centrifuged at 24500 x g for 15 minutes at 4°C (Universal centrifuge 320R Hettich®). Finally, the supernatant (1 mL) was filtrated and placed in vials to be analyzed by HPLC-PDA, Shimadzu—LC20AD, Kromasil C-18 column (4.6 mm x 250 mm, 5 μm), SPD M20A diode array detector, flow 1 mL/min, mobile phase acetonitrile: water 1:1 (v/v) for LASSBio-1491 and acetonitrile: water 60:40 (v/v) for LASSBio-1736, 20 minutes at 254 nm wavelength. Then, the microsomal half-life and clearance were calculated.
On the technique in general: Liver microsomes are vesicles of endoplasmic reticulum, rich in cytochrome P450 enzymes.

Details of data set [3]: method as in PMID 35497630, PMID 29160126. The following applies: cited from earlier work.
Data set [4] is described as follows: Microsomal metabolism. Type of data set: in vitro ADME. The following applies: rat liver microsomes, without NADPH regenerating system.
On the set-up of data set [5]: method as in PMID 35497630. The following applies: cited from earlier work.

Several values for one entry are separate records, joined by “and”; a condition that tells them apart may be missing. Identical values can stand only once.

By solubility is commonly meant the concentration that dissolves in the medium under given conditions. The term Papp denotes a coefficient for how fast a substance crosses the barrier. Low readings indicate slow passage, high ones fast passage. The half-life is the time needed for the level to fall by half in the phase considered. High values mean slow loss, low ones fast loss. As a reminder, the microsomal CLint is the capacity of the preparation to metabolise the compound, expressed as a volume cleared per time. A lower microsomal CLint goes with greater metabolic stability.

With `O=C(N/N=C/c1ccc(C(F)(F)F)cc1)NNC(=O)c1ccc(Cl)cc1Cl` [LASSBio-1736], the solubility at 4 h in data set [1] was 0.26 µM and 0.109 µg/mL. This molecule had a Papp in “PAMPA-BBB permeability” (PAMPA) of 10.6 ×10⁻⁶ cm/s. In “PAMPA-BBB permeability” (PAMPA-BBB), the Classification entry is listed as “CNS+”. In the data set “PAMPA-GIT permeability”, the “solubility in the PAMPA-GIT experimental set” value was “insoluble”. Besides, the “Elimination rate constant (k)” value amounted to 0.0004 in “Plasma stability” (rat plasma) and 0.0033 in “Microsomal metabolism [2]” (with co-factor). This molecule also returned a t1/2 in “Plasma stability” (rat plasma) of 28.9 h. Also, the Metabolism rate in “Plasma stability” (rat plasma, 5 μM, 37 °C, up to 240 min) is reported as 7.30%. The half-life at 5 μM in “Plasma stability” (rat, rat plasma diluted with PBS, pH 7.4, rat plasma) is 19.2 h; in “Microsomal metabolism [2]” (pH 7.4, with co-factor) it was 3.5 h. Further, in the data set “Plasma stability” (rat, rat plasma diluted with PBS, pH 7.4, read-out: Recovery rate), the recovery at 5 μM turned out to be 59.9%. This molecule also showed a microsomal CLint at 5 μM in “Microsomal metabolism [2]” (pH 7.4, with co-factor, Volume x (0,693/t1/2)) of 0.825 µL/min/mg. In addition, in the data set “Microsomal metabolism [2]” (with NADPH regenerating system), the “Metabolism rate with co-factor” value was found to be 18.33%. Further, the Clapp in the data set “Microsomal metabolism [2]” (with co-factor, scaled to liver and rat weight) was 0.128 mL/min/kg. In data set [3], the “stability in rat plasma” value was “great stability in rat plasma”. For the same molecule, the “Metabolism rate non co-factor” value in “Microsomal metabolism [4]” turned out to be 5.81%. Moreover, in data set [5], the “signals of hepatic or renal toxicity” value is given as “no preliminary signals of hepatic or renal toxicity”.

The values above are taken from publication PMC9170106, “Pre-clinical evaluation of LASSBio-1491: From in vitro pharmacokinetic study to in vivo leishmanicidal activity” (PLoS ONE, 2022).
